Reference: patent publication US8574585B2, “KDR peptides and vaccines comprising the same” (Oncotherapy Science, Inc., priority 2002, dated 2013)
Where no end group is shown, it is not given here.

Test system: peptide-pulsed TISI cells (HLA-A24/24)
Assay: CTL lines induced with peptide-pulsed DCs, four-hour 51Cr release assay
Format: cell-based, human
Details: CTL line induced with the peptide; for CYTOTOXIC ACTIVITY ×2 Pep(+) / CYTOTOXIC ACTIVITY ×20 Pep(+): peptide-pulsed targets; for CYTOTOXIC ACTIVITY ×2 Pep(−) / CYTOTOXIC ACTIVITY ×20 Pep(−): targets without peptide
Experimental: Epstein-Barr virus (EBV)-immortalized B cell lines, TISI (HLA-A24/24) and EHM (HLA-A3/3), were provided by Takara Shuzo Biotechnology Research Laboratory.
HLA serotyping was performed using 7 mL of peripheral blood collected from a healthy subject. Peripheral blood mononuclear lymphocytes (PBMCs) were isolated from HLA-A24-positive peripheral blood using Ficoll Paque (Pharmacia) specific gravity centrifugation.
The obtained PBMCs were left to stand for ten hours in a culture flask (Corning, 43072). After removing the suspended cells, the cells that adhered to the flask were cultured in AIM-V medium (Invitrogen) supplemented with 2% autoserum by adding 1,000 U/mL of human GM-CSF (provided by Kirin Brewery), and 1,000 U/mL of human IL-4 (Genzyme). Five days later, the cells were cultured for another 48 hours in 10 μg/mL of OK-432 (provided by Chugai Pharmaceutical Co., Ltd.), and were used as antigen-presenting cells for CTL induction.
The resulting DCs were mixed with CD8-positive cells selected by magnetic beads (Dynabeads M-450 and Detachabeads) from PBMC, at a ratio of 1:20 or 1:2, and then cultured in a 48-well plate (Corning), in the presence of 10 ng/mL of human IL-7 (Genzyme). Three days later, the final concentration of 10 U/mL of IL-2 (Sigma) was added to the culture. And seven and 14 days later, the same DCs were stimulated to induce CTLs, and 20 days later, cytotoxicity was measured for each well using peptide-pulsed TISI cells as targets. Only the positive wells were cultured by a stimulation method with allo-PBMC, EBV-immortalized B cell lines (EHM), and 30 ng/mL of anti-CD3 antibody. CTLs were functionally analyzed 14 days later.
Cytotoxic activity was evaluated by a four-hour ^51Cr release assay. A concentration of 20 μg/mL of the target cells were pulsed with peptides overnight. The target cells were labeled with 100 μCi of Na2^51CrO4 at 37° C. for one hour, and then washed three times with RPMI1640. The target cells (1×10^4/100 μL) and 100 μL of effector cells at various concentrations with a total volume of 200 μL were placed into a U-shaped 96-well microtiter plate (Corning), and cultured at 37° C. in a CO2 incubator for four hours. After culturing, 100 μL of supernatant was collected from each well, and measured using a γ counter. Natural decay was the radioactivity of the target cells and the medium, and maximum decay was the radioactivity of the target cells and 1 M HCl. Cytotoxic activity (percentage of specific lysis) was calculated by the following formula: Cytotoxic activity (% Cytotoxicity)=(Experimental decay−natural decay)/(maximum decay−natural decay)×100

Sequence | CYTOTOXIC ACTIVITY ×2 Pep(+) | CYTOTOXIC ACTIVITY ×2 Pep(−) | CYTOTOXIC ACTIVITY ×20 Pep(+) | CYTOTOXIC ACTIVITY ×20 Pep(−)
GYRIYDVVL [SEQ ID NO:3] | 20% | 0% | 57% | 2%
TFSELVEHL [SEQ ID NO:7] | 0% | 0% | 0% | 0%
WYKLGPQPL [SEQ ID NO:1] | 0% | 0% | 6% | 4%
DFLTLEHLI [SEQ ID NO:12] | 8% | 0% | 13% | 4%
SYMISYAGM [SEQ ID NO:5] | 20% | 0% | 41% | 3%
VYSSEEAEL [SEQ ID NO:2] | 8% | 3% | 39% | 21%
AFGSGMESL [SEQ ID NO:9] | 0% | 0% | 6% | 6%
RFVPDGNRI [SEQ ID NO:8] | 53% | 0% | 98% | 2%
KFGNLSTYL [SEQ ID NO:4] | 0% | 2% | 3% | 4%
EFPRDRLKL [SEQ ID NO:6] | 1% | 0% | 3% | 2%
KWEFPRDRL [SEQ ID NO:11] | 11% | 0% | 23% | 0%
KNLDTLWKL [SEQ ID NO:10] | 1% | 1% | 3% | 2%
